Data as given in patent publication US9884063B2, “Amido-substituted azole compounds” (Bayer Pharma Aktiengesellschaft, priority 2014, dated 2018).

Biological target: T1, TNKS2 (Homo sapiens, UniProt Q9H2K2)
T1 sequence (Q9H2K2 1-1166): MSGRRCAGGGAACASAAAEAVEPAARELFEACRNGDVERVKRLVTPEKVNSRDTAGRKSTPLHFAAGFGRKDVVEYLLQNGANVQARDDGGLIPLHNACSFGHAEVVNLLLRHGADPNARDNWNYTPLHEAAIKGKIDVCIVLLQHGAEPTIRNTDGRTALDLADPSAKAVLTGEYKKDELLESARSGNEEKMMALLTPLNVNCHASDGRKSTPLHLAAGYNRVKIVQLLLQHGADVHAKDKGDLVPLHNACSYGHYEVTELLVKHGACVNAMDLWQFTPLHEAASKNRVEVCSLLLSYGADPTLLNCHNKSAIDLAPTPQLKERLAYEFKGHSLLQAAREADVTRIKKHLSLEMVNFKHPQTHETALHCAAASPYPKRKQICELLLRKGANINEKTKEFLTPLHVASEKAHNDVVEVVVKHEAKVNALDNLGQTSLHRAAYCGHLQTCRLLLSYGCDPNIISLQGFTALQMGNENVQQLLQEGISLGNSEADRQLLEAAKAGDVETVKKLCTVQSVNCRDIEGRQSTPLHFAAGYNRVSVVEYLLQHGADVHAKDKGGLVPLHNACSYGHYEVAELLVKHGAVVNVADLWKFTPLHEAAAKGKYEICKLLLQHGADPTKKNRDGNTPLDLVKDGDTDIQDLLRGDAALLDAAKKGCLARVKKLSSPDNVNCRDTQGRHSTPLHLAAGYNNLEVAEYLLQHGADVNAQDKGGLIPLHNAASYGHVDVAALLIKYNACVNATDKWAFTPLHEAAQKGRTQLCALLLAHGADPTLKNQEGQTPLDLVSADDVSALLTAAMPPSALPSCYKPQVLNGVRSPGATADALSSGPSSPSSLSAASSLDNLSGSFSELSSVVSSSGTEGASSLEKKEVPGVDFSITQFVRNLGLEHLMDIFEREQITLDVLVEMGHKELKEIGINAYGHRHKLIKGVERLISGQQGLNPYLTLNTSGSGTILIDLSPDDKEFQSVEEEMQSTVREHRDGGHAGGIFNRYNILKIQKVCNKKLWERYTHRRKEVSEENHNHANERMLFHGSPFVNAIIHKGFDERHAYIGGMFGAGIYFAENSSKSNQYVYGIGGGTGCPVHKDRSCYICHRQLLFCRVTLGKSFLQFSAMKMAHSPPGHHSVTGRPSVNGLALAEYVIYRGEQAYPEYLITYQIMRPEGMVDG
Test: Modified TNKS2 Assay 3 (BPS kit #80578, biotin-NAD+, 96 well)
Format: biochemical
Conditions: human TNKS2, BPS kit #80578, 96 well
Experimental: The potency of the compounds against human TNKS2 according to the invention was assessed using a commercially available biotin/streptavidin binding assay kits from BPS Bioscience, San Diego, USA (Catalog #80578 for TNKS2). The incorporation of a biotin-labeled NAD+ during the […] catalyzed ribosylation of a suitable protein substrate was detected using with a streptavidin-HRP coupled chemi-luminescent readout. The intensity of the readout signal is proportional to the incorporated NAD^+. Inhibition of TNKS2 leads to a decreased incorporation of NAD^+ and consequently to a lower readout signal intensity in the corresponding TNKS2 assays. The concentration of a test compound that inhibits the enzyme activity by 50% (corresponds to half of the normed readout signal intensity) is reported as IC50. The assay conducted in a 96 well MTP format according to the manufacturer's protocol and using a BMG Pherastar MTP reader [BMG-Labtech, Offenburg, Germany].

SMILES	IC50 [µM]
CNC(=O)c1nc[nH]c1C(=O)Nc1ccc(NC(=O)c2ccc(F)cc2Cl)nc1 [Example 16, N^5-{6-[(2-chloro-4-fluorobenzoyl)amino]pyridin-3-yl}-N^4-methyl-1H-imidazole-4,5-dicarboxamide]	0.04
NC(=O)c1nc[nH]c1C(=O)Nc1ccc(NC(=O)c2ccc(F)cc2Cl)cc1 [Example 121]	0.11
O=C(NCCN1CCCCC1)c1nc[nH]c1C(=O)Nc1ccc(NC(=O)c2c(F)cc(F)cc2Cl)cc1 [Example 119, N^5-{4-[(2-chloro-4,6-difluorobenzoyl)amino]phenyl}-N^4-[2-(piperidin-1-yl)ethyl]-1H-imidazole-4,5-dicarboxamide]	< 0.0005
CC1CCCN(CCNC(=O)c2[nH]cnc2C(=O)Nc2ccc(NC(=O)c3ccc(F)cc3Cl)cc2)C1 (centres unmarked) [Example 208, N^4-{4-[(2-chloro-4-fluorobenzoyl)amino]phenyl}-N^5-[2-(3-methylpiperidin-1-yl)ethyl]-1H-imidazole-4,5-dicarboxamide]	0.003
CNC(=O)c1nc[nH]c1C(=O)Nc1ccc(NC(=O)c2ccc(F)cc2Cl)cc1 [Example 12, N^5-{4-[(2-chloro-4-fluorobenzoyl)amino]phenyl}-N^4-methyl-1H-imidazole-4,5-dicarboxamide]	0.06
COCCNC(=O)c1[nH]cnc1C(=O)Nc1ccc(NC(=O)c2ccc(F)cc2Cl)cc1 [Example 130, N^4-{4-[(2-chloro-4-fluorobenzoyl)amino]phenyl}-N^5-(2-methoxyethyl)-1H-imidazole-4,5-dicarboxamide]	0.17
CNC(=O)c1nc[nH]c1C(=O)Nc1ccc(NC(=O)c2c(F)cc(F)cc2Cl)cc1 [Example 118, N^5-{4-[(2-chloro-4,6-difluorobenzoyl)amino]phenyl}-N^4-methyl-1H-imidazole-4,5-dicarboxamide]	0.23
O=C(Nc1ccc(NC(=O)c2[nH]cnc2C(=O)NCC(F)(F)F)cc1)c1ccc(F)cc1Cl [Example 30, N^4-{4-[(2-chloro-4-fluorobenzoyl)amino]phenyl}-N^5-(2,2,2-trifluoroethyl)-1H-imidazole-4,5-dicarboxamide]	0.13
CC1CCN(CCNC(=O)c2nc[nH]c2C(=O)Nc2ccc(NC(=O)c3ccc(F)cc3Cl)cc2)CC1 [Example 126, N^5-{4-[(2-chloro-4-fluorobenzoyl)amino]phenyl}-N^4-[2-(4-methylpiperidin-1-yl)ethyl]-1H-imidazole-4,5-dicarboxamide]	0.001

More lines, now with the values ahead:

IC50 [µM]	SMILES
0.12	CNC(=O)c1nc[nH]c1C(=O)Nc1ccc(NC(=O)c2cc(F)c(F)cc2Cl)cc1 [Example 242, N^5-{4-[(2-chloro-4,5-difluorobenzoyl)amino]phenyl}-N^4-methyl-1H-imidazole-4,5-dicarboxamide]
0.0009	O=C(Nc1ccc(NC(=O)c2nc[nH]c2C(=O)NCCN2CCCC(F)C2)cc1)c1ccc(F)cc1Cl (centres unmarked) [Example 226, N^4-{4-[(2-chloro-4-fluorobenzoyl)amino]phenyl}-N^5-[2-(3-fluoropiperidin-1-yl)ethyl]-1H-imidazole-4,5-dicarboxamide]
0.03	CNC(=O)c1nc[nH]c1C(=O)Nc1ccc(NC(=O)c2cc(OC)c(OC)cc2Cl)cc1 [Example 240, N^5-{4-[(2-chloro-4,5-dimethoxybenzoyl)amino]phenyl}-N^4-methyl-1H-imidazole-4,5-dicarboxamide]
0.03	CNC(=O)c1nc[nH]c1C(=O)Nc1ccc(NC(=O)c2ccc(C)cc2Cl)cc1 [Example 244, N^5-{4-[(2-chloro-4-methylbenzoyl)amino]phenyl}-N^4-methyl-1H-imidazole-4,5-dicarboxamide]
0.08	O=C(Nc1ccc(NC(=O)c2nc[nH]c2C(=O)NC2CCOC2)cc1)c1ccc(F)cc1Cl (centres unmarked) [Example 236, N^4-{4-[(2-chloro-4-fluorobenzoyl)amino]phenyl}-N^5-(tetrahydrofuran-3-yl)-1H-imidazole-4,5-dicarboxamide]
